According to patent US20060292657A1, “Phex substrates and methods using same” (priority 2003, published 2006):
Square brackets hold non-standard residues; d marks the D form. Primed or numbered codes have the meaning given here. Ends that are not written are not given here. Peptide text beside a SMILES is read from it. * marks the point of attachment. EDDnp = O=[N+]([O-])c1ccc(NCCN*)c([N+](=O)[O-])c1; Dnp = O=[N+]([O-])c1ccc(*)c([N+](=O)[O-])c1; Dnp′ = 2,4-dinitrophenyl; 2Abz = Nc1ccccc1C(=O)O

Key:
Format in all cases: biochemical
secPHEX [1] = target: T1, secPHEX (Homo sapiens, UniProt P78562); test: Determination of secPHEX activity and concentration in serum with fluorigenic substrate; conditions: activity determination in serum
T1 construct: pure soluble form of PHEX (secPHEX); made in house
T1 sequence (P78562 46-749 limits assumed): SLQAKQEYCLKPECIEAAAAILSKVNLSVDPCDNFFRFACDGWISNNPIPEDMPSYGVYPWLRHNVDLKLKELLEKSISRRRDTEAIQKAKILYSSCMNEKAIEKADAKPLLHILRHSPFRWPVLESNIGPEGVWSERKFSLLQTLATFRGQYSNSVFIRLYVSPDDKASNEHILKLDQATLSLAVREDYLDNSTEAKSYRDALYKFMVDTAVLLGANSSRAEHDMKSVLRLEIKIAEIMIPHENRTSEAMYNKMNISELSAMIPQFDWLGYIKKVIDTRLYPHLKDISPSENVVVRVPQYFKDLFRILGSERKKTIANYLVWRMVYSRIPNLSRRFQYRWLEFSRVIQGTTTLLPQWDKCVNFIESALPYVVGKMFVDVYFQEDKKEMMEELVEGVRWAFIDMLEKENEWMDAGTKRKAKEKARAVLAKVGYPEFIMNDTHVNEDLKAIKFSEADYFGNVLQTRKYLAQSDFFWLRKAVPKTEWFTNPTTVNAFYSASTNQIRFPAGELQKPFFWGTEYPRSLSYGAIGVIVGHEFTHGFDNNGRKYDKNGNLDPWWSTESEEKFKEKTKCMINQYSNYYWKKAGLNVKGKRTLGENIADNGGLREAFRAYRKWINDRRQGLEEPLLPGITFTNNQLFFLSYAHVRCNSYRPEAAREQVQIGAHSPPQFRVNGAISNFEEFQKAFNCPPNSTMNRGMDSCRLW
Method: FIG. 6 graphically illustrates the secPHEX enzymatic activity on a fluorigenic substrate of the present invention in rat serum. The observed fluorescence increase was proportional to the reaction product formation. The reaction was carried out in a total volume of 200 μl constituted of buffer: 50 mM Hepes (NaOH) pH 7.4, 150 mM NaCl, 5*10−6 M captopril (ACE inhibitor), containing 10 μl of rat serum in which purified sPHEX was spiked. The enzymatic reaction was initiated by the addition of the fluorigenic substrate (Abz-GFSDYK-Dnp) (SEQ ID NO:3) at a final concentration of 20 μM. The fluorescent reaction product was excited at 320 nm and fluorescence recorded at 420 nm every four minutes over a one-hour period in a 96-well plate reader (Perkin-Elmer, HTS-7000). The initial enzymatic speed rate of the reaction was calculated for each condition. The reaction was carried out in presence of 5 mM EDTA to assess whether the assay is specific to metallopeptidase. Measurements were done in duplicates.
secPHEX enzymatic activity was determined using a fluorigenic substrate where increase of fluorescence was proportional to substrate conversion to products. […] Of these, S3 was the most preferred substrate. […]
The reaction was carried out in a total volume of 200 μl constituted of buffer (50 mM Mes(NaOH) pH 6.5, 150 mM NaCl, 5×10^−6 M captopril (ACE inhibitor)) and serum (preferably between 2 to 50 μl). […] The fluorescent reaction product is excited at 320 nm with fluoresce emission read at 420 nm every four minutes over a one-hour period using 96-well plate reader (Perikin-Elmer, HTS-7000™). The initial reaction rate was calculated from the acquired fluorescence-time data as a slope using Microsoft Excell™. PHEX Enzymatic activity (Vi) was calculated by subtracting to the initial rate of fluorescence (Vitot) with the same measured in presence of EDTA 5 mM (ViEDTA). […]
The actual secPHEX concentration was determined from a calibration curve (Vi Vs secPHEX concentration) obtained by serial dilution of secPHEX in serum or other biological media as required.

secPHEX [2] = target: T1, secPHEX; test: IC50 determination of PHEX inhibitor, fluorigenic substrate assay
Method: secPHEX enzymatic activity was determined using a fluorigenic substrate where increase of fluorescence was proportional to substrate conversion to products. […] Of these, S3 was the most preferred substrate. S3 was synthesized as described above.
The reaction was carried out in a total volume of 200 μl constituted of buffer (50 mM Mes(NaOH) pH 6.5, 150 mM NaCl) containing various concentrations of the tested PHEX inhibitor (3×10^−5 to 1×10^−11 M) and 100 ng of purified secPHEX. The enzymatic reaction was initiated with the addition of the fluorigenic substrate at a final concentration of 10 μM. The fluorescent reaction product was excited at 320 nm with fluoresce emission read at 420 nm every four minutes over a one-hour period using 96-well plate reader (Perkin-Elmer, HTS-7000™). The initial reaction rate was calculated from the acquired fluorescence-time data as a slope using Microsoft Excell™. Further examples can be found in the co-pending PCT application number PCT/CA03/01893.
IC50 was determined with a plot of the initial rates computed above as a function of inhibitor concentration using the one site competition equation of GraphPad Prism™ version 3.03 (GraphPad™ Software Inc.).

secPHEX [3] = target: T1, secPHEX; test: pH activity profile and NaCl dependence of secPHEX hydrolysis
Method: FIG. 2 graphically illustrates pH and NaCl (inset) dependence of Abz-GFSDYK(Dnp)-OH (SEQ ID NO:3) hydrolysis by secPHEX. * k,t/Km values for the hydrolysis of Abz-GFSDYK(Dnp)-OH (SEQ ID NO:3) by PHEX were determined in presence of different buffers and pH conditions as described herein under the heading “Experimental Procedures” below. In the inset, the effect of NaCl is shown: Abz-GFSDYK(Dnp)-OH (SEQ ID NO:3) was incubated with secPHEX in 0.01 M Bis-Tris buffer, pH 5.5 with NaCl (0 to 0.5 M);
The pH dependence was studied using […] of Abz-GFSDYK(Dnp)-OH (SEQ ID NO:3) over a pH range of 3.5 to 8.5. The buffers used were as follows: 0.01 M sodium acetate (3.5<pH<5.1), 0.01 M Bis-Tris (5.1<pH<6.5), 0.01 M Hepes (6.5<pH<7.4) and 0.01 M Tris-HCI (7.4<pH<8.4), containing 0.14 M NaCl. Enzymatic activity was followed at 37° C. using the continuous fluorimetric assay and the apparent second-order rate constant (*kcat/Km) was calculated as described above for each pH.
The influence of salt on secPHEX catalytic activity was investigated using 0.2 μM of Abz-GFSDYK(Dnp)-OH (SEQ ID NO:3) as substrate at 37° C., in 0.01 M Bis-Tris buffer, pH 5.5, over a NaCl range of 0 to 500 mM. The increase in fluorescence was continuously measured at 37° C. and the apparent second-order rate constant (*kcat/Km) for the different NaCl concentrations was calculated as described above.

secPHEX [4] = target: T1, secPHEX; test: Kinetic parameters for hydrolysis of internally quenched fluorogenic peptides by secPHEX; conditions: for hydrolysis by secPHEX (result in words): 37° C., 10 mM Bis-Tris buffer pH 5.5, 150 mM NaCl
Method: The human recombinant secPHEX was obtained following the procedure previously described (17, WO 00/50580). Purified secPHEX concentration was determined using the Bradford method (DC protein assay kit; Bio-Rad, Mississauga, ON, Canada). Membrane-bound recombinant human PHEX was expressed in LLC-PK1 cells (17, (WO 00/50580)) and membranes were prepared essentially as described by Guo et al. (34). Briefly, transfected cells resuspended in lysis buffer (150 mM NaCl, 20 mM Tris.HCl, pH 7.6) were disrupted by sonication. Cell debris were removed by centrifugation at 300 g for 15 min at 4 °C. Membranes were collected by centrifugation at 30,000 g for 50 min and solubilized for 2h with 1% n-dodecyl-β-D-maltoside in lysis buffer. Insoluble material was pelleted by centrifugation at 10,000 g for 15 min and protein concentrations of the supernatant determined using the Bradford method described above. PHEX amounts were evaluated by immunoblotting as described previously (17). NEP expression and purification were performed as described previously (36).
The hydrolysis of the IQFPs, at 37° C., in 10 mM Bit-Tris buffer pH 5.5 (0.35 to 1.0 ml final volume) containing 150 mM NaCl, was continuously followed measuring the fluorescence at γem=420 nm and γex=320 nm in a Hitachi F-2000™ spectrofluorometer. The cuvefte containing the buffer and the substrate was placed in a thermostatically controlled cell compartment for 5 min before the addition of the enzyme and the increase in fluorescence with time was continuously recorded for 5-10 min. The enzyme concentration for initial rate determination was chosen at a level intended to hydrolyze less than 5% of the substrate present. […] The kinetic parameters Km and kcat were calculated by the non-linear regression data analysis Grafit program (42). The kcat/Km values were calculated as the ratio of these two determined parameters. The apparent second order rate constant kcat/Km (*kIt/Km) was determined under pseudo first-order conditions, where [S]<<Km. […]

Compound | suitability as secPHEX substrate (secPHEX [1]) | suitability as secPHEX substrate (secPHEX [2]) | other results
Nc1ccccc1C(=O)NCC(=O)N[C@@H](Cc1ccccc1)C(=O)N[C@@H](CO)C(=O)N[C@@H](CC(=O)O)C(=O)N[C@@H](Cc1ccc(O)cc1)C(=O)N[C@@H](CCCCNc1ccc([N+](=O)[O-])cc1[N+](=O)[O-])C(=O)O [I-Abz-GFS↓DYK(Dnp)-OH, Abz-GFSDYK(Dnp)-OH] (H-[2Abz]GFSDYK(Dnp)-OH) | good secPHEX substrate | good secPHEX substrate | kcat/Km with 150 mM NaCl lower than in the absence of added salt (secPHEX [3]; 10 mM Bis Tris, pH 5,5): more than 2 fold; pH of maximum kcat/Km (secPHEX [3]; pH range of 3.5 to 8.5, 37° C.): ~5.5
NC(=O)[C@H](CCCCNc1ccc([N+](=O)[O-])cc1[N+](=O)[O-])NC(=O)[C@H](Cc1ccc(O)cc1)NC(=O)[C@H](CC(=O)O)NC(=O)[C@H](CO)NC(=O)[C@H](Cc1ccccc1)NC(=O)CNC(=O)c1ccccc1N [II-Abz-GFS↓DYK(Dnp)-NH2, Abz-GFSDYK(Dnp)-NH2] (H-[2Abz]GFSDYK(Dnp)-NH2) |  |  | decrease in catalytic efficiency compared with Abz-GFSDYK(Dnp)-OH (secPHEX [4]; COOH-terminus amidated analogue): 6 fold
Abz-GFRDWK-Dnp ([2Abz]GFRDWK-{Dnp′}) [S1] | good secPHEX substrate | good secPHEX substrate | 
NC(=O)[C@H](CCCCNc1ccc([N+](=O)[O-])cc1[N+](=O)[O-])NC(=O)[C@H](Cc1ccc(O)cc1)NC(=O)[C@H](CCC(=O)O)NC(=O)[C@H](CO)NC(=O)[C@H](Cc1ccccc1)NC(=O)CNC(=O)c1ccccc1N [V-Abz-GFSEYK(Dnp)-NH2, Abz-GFSEYK(Dnp)-NH2] (H-[2Abz]GFSEYK(Dnp)-NH2) |  |  | hydrolysis by secPHEX (result in words) (secPHEX [4]): Resistant; hydrolysis by secPHEX (result in words) (secPHEX [4]; listed as Abz-GFSEYK(Dnp)-NH2): resistant to hydrolysis
CC(C)C[C@H](NC(=O)[C@H](Cc1c[nH]cn1)NC(=O)[C@H](CC(=O)O)NC(=O)c1ccccc1N)C(=O)N[C@@H](CO)C(=O)N[C@@H](CC(=O)O)C(=O)N[C@H](C(=O)N[C@@H](CO)C(=O)N[C@H](C(=O)N[C@@H](CCC(N)=O)C(=O)NCCNc1ccc([N+](=O)[O-])cc1[N+](=O)[O-])[C@@H](C)O)[C@@H](C)O [I-Abz-D125-HLS↓DTSTQ-EDDnp, Abz-DHLSDTSTQ-edDnp] (H-[2Abz]DHLSDTSTQ-EDDnp) | good secPHEX substrate | good secPHEX substrate | 
